One test deals with T1, IMP-1 (Serratia marcescens, UniProt P52699).
T1 construct: made in house; host or cells: E. coli (pCIP4 plasmid from Dr. M. Galleni)
Description: biochemical. Particulars: for IC50: IC50 (μM) class B IMP-1, nitrocefin 100 μM, 50 mM Hepes pH 7.3. As for the experimental part:
(§1) Compounds of the present application were evaluated as inhibitors of two Class B β-lactamases (IMP-1 and VIM-2) and two Class D β-lactamases OXA-10 and OXA-45).
IMP-1 was overexpressed in E. coli using the pCIP4 plasmid encoding IMP-1 which was obtained from Dr. M. Galleni, Université de Liège, B-4000 Liege, Belgium, and was purified as described by Laraki, N. et al., Antimicrob. Agents Chemother. 1999 43, 902-906.
(§2) Two methods were used for measurement of β-lactamase activity, based on the use of the substrate nitrocefin. The first was carried out in a cuvette (final volume 1 ml, 25° C.) with the aid of a Cary 5 spectrophotometer, and second was with the use of a Molecular Devices Spectramax 190 96 well plate reader (final volume 100 μl, 30° C.).
(§3) All assays were performed in the appropriate buffer for the enzyme: (i) IMP-1, VIM-2: 50 mM Hepes pH 7.3, 1 μg/ml BSA, 1 μM ZnSO4; (ii) OXA-45: 100 mM Na Phosphate/25 mM NaCO3 pH 7.0, 1 μg/ml BSA; and (iii) OXA-10: 100 mM Na Phosphate/25 mM NaCO3 pH 7.0. Enzyme concentrations were chosen so that a reasonable rate of reaction was observed. Inhibitors were dissolved in DMSO, with the final concentration of DMSO in the assay being 1%. Nitrocefin was dissolved in DMSO and diluted in 50 mM Hepes pH 7.3 with the final concentration in the assay being 100 μM. The enzyme was allowed to react with the inhibitor for a predetermined time followed by addition of substrate to initiate the reaction, which was monitored for an increase in absorbance at 482 nm. IC50 values were determined by plotting percent loss of initial activity vs log inhibitor concentration. Controls were run to ensure that there was minimal loss of activity with DMSO (<10%). When inhibition by DMSO was noted, 0.5 M NaCl was added to stabilize the enzyme.

The target of a further test is T2, VIM-2 (Escherichia coli, UniProt Q5U7L7).
T2 construct: made in house; host or cells: E. coli DH10B (pNOR,2001 plasmid from Dr. P. Nordmann)
Briefly: biochemical. Type of test: biochemical. As for the experimental part: as §1
VIM-2 was overexpressed in E. coli (DH10B) containing the pNOR,2001 plasmid, encoding VIM-2, which was provided by Dr. P. Nordmann, Universite de Paris, and was purified as described by Poirel et al., Antimicrob. Agents Chemother. 2000, 44, 891-897.
as §2, §3

The target of a further test is T3, OXA-10 (Pseudomonas aeruginosa, UniProt P14489).
T3 construct: made in house; host or cells: E. coli (pEt24a(+) plasmid from Dr. S. Mobashery)
Description: biochemical. Type of test: biochemical. The method, then:
as §1
OXA-10 was overexpressed in E. coli using the pEt24a(+) plasmid, encoding OXA-10, which was provided by Dr. S. Mobashery, University of Notre Dame, and was purified as described by Golemi et al., J. Am. Chem. Soc. 2000, 122, 6132-6133.
as §2, §3

Another test concerns the target OXA-45 (Pseudomonas aeruginosa, UniProt Q7WZC7). Briefly: β-lactamase inhibition assay with nitrocefin substrate, OXA-45. Type of test: biochemical. As for the experimental part:
as §1
OXA-45 was a gift from Dr. J. Spencer, University of Bristol, and had been prepared and purified as described by Toleman, M. A. et al., Antimicrob. Agents Chemother. 2003, 47, 2859-2863.
as §2, §3

Test [1] has as its system Pseudomonas aeruginosa strain 81-11963 (produces metallo β-lactamase VIM-2). Briefly: Agar dilution MIC, synergy with pipericillin, P. aeruginosa. Format: cell-based. Particulars: P. aeruginosa strain 81-11963 (VIM-2), compound at ¼ the concentration of the antibiotic, 18 h. As for the experimental part:
(§4) Such compounds were expected to enhance the potency of a clinically useful β-lactam antibiotic against clinical isolates of human pathogenic bacteria which are highly resistant to β-lactam antibiotics. Certain β-lactamase inhibitors were tested to determine whether or not they would have a synergistic effect on the antibacterial activity of pipericillin against β-lactam antibiotic resistant bacterial clinical isolates using the Agar Dilution Method.
(§5) Bacterial colonies were taken from overnight blood agar plates, and sterile saline was inoculated to make a 0.5 McFarland suspension inoculum and further diluted such that the 10^4 CFU spots were delivered to the MHA (Oxoid) surface. Inhibitor samples were dissolved in DMSO and administered at a pipericillin:compound ratio of 4:1 (wt/wt). The plates were incubated at 35° C. and read after 18 h of incubation. MICs were measured by agar dilution on Mueller-Hinton II agar (BD Microbiology Systems, Cockeysville, Md., USA), as recommended by the NCCLS (National Committee for Clinical Laboratory Standards. (2003).Performance Standards for Antimicrobial Susceptibility Testing.)
In general terms: In agar dilution the substance is mixed into plates at graded concentrations.

Test [2] has as its system Stenotrophomonas maltophilia strain 92-00626 (produces metallo β-lactamase L1). Briefly: Agar dilution MIC, synergy with pipericillin, S. maltophilia. Format: cell-based. Particulars: S. maltophilia strain 92-00626 (L1), compound at ¼ the concentration of the antibiotic, 18 h. As for the experimental part:
as §4, §5

Setting [3] is: nitrocefin 100 μM, 100 mM Na Phosphate/25 mM NaCO3 pH 7.0, read-out: IC50 (μM) class D OXA-45.

Several values for one entry are separate records, joined by “and”; a condition that tells them apart may be missing. Equal values may be shown once. Read-outs that look alike come from different tables or passages of the source.

A word on the IC50: it is the concentration at which inhibition is half-maximal.

T3 sequence (P14489 20-266): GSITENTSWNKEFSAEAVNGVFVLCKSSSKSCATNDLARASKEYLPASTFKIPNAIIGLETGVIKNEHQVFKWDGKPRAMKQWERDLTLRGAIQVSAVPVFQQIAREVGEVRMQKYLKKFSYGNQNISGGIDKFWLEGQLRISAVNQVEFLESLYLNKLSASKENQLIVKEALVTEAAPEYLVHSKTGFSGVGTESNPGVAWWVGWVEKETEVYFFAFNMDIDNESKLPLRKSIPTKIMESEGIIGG
Chain of OXA-45 (Q7WZC7 entry or part of it): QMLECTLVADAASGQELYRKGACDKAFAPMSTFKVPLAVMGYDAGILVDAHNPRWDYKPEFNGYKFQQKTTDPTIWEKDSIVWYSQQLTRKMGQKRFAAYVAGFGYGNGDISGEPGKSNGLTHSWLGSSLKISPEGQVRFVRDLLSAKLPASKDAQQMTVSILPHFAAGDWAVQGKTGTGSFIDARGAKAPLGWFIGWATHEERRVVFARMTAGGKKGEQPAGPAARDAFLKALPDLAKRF
T1 sequence (P52699 19-246 limits assumed): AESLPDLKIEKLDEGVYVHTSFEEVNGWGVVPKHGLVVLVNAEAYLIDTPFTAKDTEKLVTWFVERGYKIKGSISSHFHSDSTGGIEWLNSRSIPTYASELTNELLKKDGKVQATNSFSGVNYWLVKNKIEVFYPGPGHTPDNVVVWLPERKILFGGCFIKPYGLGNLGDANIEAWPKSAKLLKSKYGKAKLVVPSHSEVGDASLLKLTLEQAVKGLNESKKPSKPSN

For `CC(C)(C)c1ccc(C(=O)N/N=C/c2c3ccccc3cc3ccccc23)cc1` [Compound 1, N′-(Anthracen-9-ylmethylene)-4-t-butylbenzohydrazide], the IC50 at IMP-1 was 0.9 µM and 0.91 µM.
Take `O=C(N/N=C/c1ccccc1O)c1ccc2ccccc2c1` [Compound 2, N′-(2-Hydroxybenzylidene)-2-naphthohydrazide]: on IMP-1, the “inhibition of IMP-1 (in words)” value is recorded as “inhibited” and the IC50 stood at 38.3 µM. Also, at VIM-2, the IC50 turned out to be 35.1 µM and the “inhibition of VIM-2 (in words)” value was “inhibited”. In addition, on OXA-10, half-maximal inhibition (IC50) required 15.2 µM and the “inhibition of OXA-10 (in words)” value is reported as “inhibited”. Further, at OXA-45, half-maximal inhibition (IC50) was put at 1.8 µM and the “inhibition of OXA-45 (in words)” value is listed as “inhibited”.
Take `O=C(N/N=C/c1ccccc1O)c1cc2ccccc2cc1O` [Compound 3, 3-Hydroxy-N′-(2-hydroxybenzylidene)-2-naphthohydrazide]: at IMP-1, the “inhibition of IMP-1 (in words)” value is “inhibited” and the IC50 amounted to 8.3 µM. Further, at VIM-2, the 50% inhibitory concentration (IC50) stood at 18.2 µM and the “inhibition of VIM-2 (in words)” value is “inhibited”. On OXA-10, half-maximal inhibition (IC50) required 3.9 µM and the “inhibition of OXA-10 (in words)” value is on record as “inhibited”. Also, at OXA-45, the “inhibition of OXA-45 (in words)” value was “inhibited”. Moreover, the half-inhibitory concentration (IC50) on OXA-45 (setting [3]) was 0.25 µM. The “diminution in the MIC value found for pipericillin” value in test [1] is reported as “greater than 4 fold”.
In the case of `CC(C)(C)c1ccc(C(=O)N/N=C/c2c(O)ccc3ccccc23)cc1` [Compound 4, 4-t-Butyl-N′-((2-hydroxynaphthalen-1-yl)methylene)benzohydrazide], on IMP-1, the “inhibition of IMP-1 (in words)” value is given as “inhibited” and the half-maximal inhibitory concentration (IC50) turned out to be 3 µM. Further, on VIM-2, the IC50 was 9 µM and the “inhibition of VIM-2 (in words)” value is listed as “inhibited”. Besides, at OXA-10, the IC50 worked out at 1.7 µM and the “inhibition of OXA-10 (in words)” value is reported as “inhibited”. For the same molecule, on OXA-45, the “inhibition of OXA-45 (in words)” value is “inhibited”. In addition, at OXA-45 (setting [3]), the half-maximal inhibitory concentration (IC50) worked out at 1.7 µM.
As for `CC(C)(C)c1ccc(C(=O)N/N=C/c2ccccc2O)cc1` [Compound 5, 4-t-Butyl-N′-(2-hydroxybenzylidene)benzohydrazide], at IMP-1, the “inhibition of IMP-1 (in words)” value was “inhibited” and 9 µM corresponded to half-maximal inhibition (IC50). At VIM-2, the half-inhibitory concentration (IC50) is 18 µM and the “inhibition of VIM-2 (in words)” value is “inhibited”. For the same molecule, on OXA-10, the IC50 stood at 12.8 µM and the “inhibition of OXA-10 (in words)” value is reported as “inhibited”. The “inhibition of OXA-45 (in words)” value on OXA-45 is listed as “inhibited”. Besides, the 50% inhibitory concentration (IC50) at OXA-45 (setting [3]) was 28 µM. In addition, the “diminution in the MIC value found for pipericillin” value in test [2] is given as “greater than 4 fold”.
For the molecule `O=C(N/N=C/c1c2ccccc2cc2ccccc12)c1cc2ccccc2cc1O` [Compound 6, N′-(Anthracen-9-ylmethylene)-3-hydroxy-2-naphthohydrazide], the IC50 against IMP-1 turned out to be 1.02 µM; at VIM-2, 12.3 µM; against OXA-10, 2.8 µM; on OXA-45 (setting [3]), 0.57 µM.
`O=C(N/N=C/c1cccc(Oc2ccccc2)c1)c1cc2ccccc2cc1O` [Compound 7, 3-Hydroxy-N-(3-phenoxybenzylidene)-2-naphthohydrazide]: the IC50 at IMP-1 was determined as 7 µM; on VIM-2, 8.5 µM; against OXA-10 it was 1.8 µM; at OXA-45, 0.56 µM.
Taken in the same sequence, the figures for `CC(C)(C)c1ccc(C(=O)N/N=C/c2cccc(Oc3ccccc3)c2)cc1` [Compound 8, 4-t-Butyl-N′-(3-phenoxybenzylidene)benzohydrazide] were 6.7 µM, 23.9 µM, 10.3 µM and 4.3 µM.
With `CC(C)(C)c1ccc(C(=O)N/N=C/c2ccccc2OCc2ccccc2)cc1` [Compound 10, N′-(2-(Benzyloxy)benzylidene)-4-t-butylbenzohydrazide], the half-maximal inhibitory concentration (IC50) on IMP-1 was 4.7 µM; against VIM-2, over 10 µM; against OXA-10 it was over 10 µM; at OXA-45 (setting [3]) it was over 10 µM.
On to `CC(C)(C)c1ccc(C(=O)N/N=C/c2ccc3c(c2)OCO3)cc1` [Compound 11, N′-(Benzo[d][1,3]dioxol-5-ylmethylene)-4-t-butylbenzohydrazide], for which the IC50 on IMP-1, on VIM-2, on OXA-10 and on OXA-45 was over 10 µM in each case.
Consider `CC(C)(C)c1ccc(C(=O)N/N=C/c2ccccc2[N+](=O)[O-])cc1` [Compound 12, 4-t-Butyl-N′-(2-nitrobenzylidene)benzohydrazide], for which the half-maximal inhibitory concentration (IC50) against IMP-1, on VIM-2, at OXA-10 and on OXA-45 (setting [3]) was over 10 µM throughout.
With `O=C(N/N=C/c1ccccc1O)c1cccnc1` [Compound 13, N′-(2-Hydroxybenzylidene)nicotinohydrazide], the IC50 on IMP-1, on VIM-2, against OXA-10 and against OXA-45 was over 100 µM throughout.
Turning to `O=C(N/N=C/c1ccccc1O)c1ccncc1` [Compound 14, N′-(2-Hydroxybenzylidene)isonicotinohydrazide], the IC50 against IMP-1, on VIM-2, at OXA-10 and on OXA-45 (setting [3]) was over 100 µM each time.
On to `O=C(N/N=C/c1ccccc1O)c1ccccc1O` [Compound 15, 2-Hydroxy-N′-(2-hydroxybenzylidene)benzohydrazide], for which the 50% inhibitory concentration (IC50) against IMP-1, against VIM-2, on OXA-10 and on OXA-45 (setting [3]) was over 40 µM each time.

(Values after patent US20110046101A1, “BATE-LACTAMASE INHIBITORS” (priority 2008, published 2011).)
